pIC50: −log10 of the molar value. ≈ marks a conversion by molar mass, not a printed value.
Experiments:
[1] = biological target: T1, Lanosterol 14-alpha demethylase (Candida albicans (strain SC5314 / ATCC MYA-2876) (Yeast), UniProt P10613); test: Inhibition of CYP51 in Candida albicans ATCC SC5314 assessed as lanosterol level at 8 ug/ml after 16 hrs by GC-MS analysis (reference value: 1.7%); set-up: scale not given: the % may be the effect or the level left; settings: candida albicans sc5314, 16 h, at 8 µg/mL
T1 sequence (P10613 whole entry): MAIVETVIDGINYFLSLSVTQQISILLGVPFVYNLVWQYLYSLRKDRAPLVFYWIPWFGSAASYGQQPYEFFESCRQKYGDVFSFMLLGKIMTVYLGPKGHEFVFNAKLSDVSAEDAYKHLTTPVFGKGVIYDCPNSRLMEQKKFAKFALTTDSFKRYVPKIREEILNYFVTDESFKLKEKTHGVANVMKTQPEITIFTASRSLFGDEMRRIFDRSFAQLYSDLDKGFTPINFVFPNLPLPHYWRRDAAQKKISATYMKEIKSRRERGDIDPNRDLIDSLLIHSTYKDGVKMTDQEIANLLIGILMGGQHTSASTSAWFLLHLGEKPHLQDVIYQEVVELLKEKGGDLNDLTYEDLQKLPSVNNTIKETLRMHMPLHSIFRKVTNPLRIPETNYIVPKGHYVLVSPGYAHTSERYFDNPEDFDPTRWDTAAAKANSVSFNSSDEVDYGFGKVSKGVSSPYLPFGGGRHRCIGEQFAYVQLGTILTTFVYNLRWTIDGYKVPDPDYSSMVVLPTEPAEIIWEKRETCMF

[2] = test system: Candida albicans; test: Fungicidal activity against Candida albicans CPCC400616 assessed as fungal killing incubated for 48 hrs followed by culturing on PDA plate for 24 hrs; type: functional; settings: time 72 hrs
[3] = biological target: T1, Lanosterol 14-alpha demethylase; test: Inhibition of CYP51 in Candida albicans ATCC SC5314 assessed as lanosterol level at 0.5 ug/ml after 16 hrs by GC-MS analysis (reference value: 1.7%); set-up: scale not given: the % may be the effect or the level left; settings: candida albicans sc5314, 16 h, at 0.5 µg/mL
[4] = biological target: T1, Lanosterol 14-alpha demethylase; test: Inhibition of CYP51 in Candida albicans ATCC SC5314 assessed as Obtusifoliol level at […] ug/ml after 16 hrs by GC-MS analysis (reference value: 0%); set-up: scale not given: the % may be the effect or the level left; settings: candida albicans sc5314, 16 h, dose 0.125 µg/ml
[5] = biological target: T1, Lanosterol 14-alpha demethylase; test: Inhibition of CYP51 in Candida albicans ATCC SC5314 assessed as ergosterol level at 0.03125 ug/ml after 16 hrs by GC-MS analysis (reference value: 98.3%); set-up: scale not given: the % may be the effect or the level left; settings: candida albicans sc5314, 16 h, at 0.03125 µg/mL
[6] = biological target: T1, Lanosterol 14-alpha demethylase; test: Inhibition of CYP51 in Candida albicans ATCC SC5314 assessed as ergosterol level at 2 ug/ml after 16 hrs by GC-MS analysis (reference value: 98.3%); set-up: scale not given: the % may be the effect or the level left; settings: candida albicans sc5314, 16 h, at 2 µg/mL
[7] = biological target: T1, Lanosterol 14-alpha demethylase; test: Inhibition of CYP51 in Candida albicans ATCC SC5314 assessed as Eburicol level at 8 ug/ml after 16 hrs by GC-MS analysis (reference value: 0%); set-up: scale not given: the % may be the effect or the level left; settings: candida albicans sc5314, 16 h, at 8 µg/mL
[8] = biological target: T1, Lanosterol 14-alpha demethylase; test: Inhibition of CYP51 in Candida albicans ATCC SC5314 assessed as ergosterol level at 0.5 ug/ml after 16 hrs by GC-MS analysis (reference value: 98.3%); set-up: scale not given: the % may be the effect or the level left; settings: candida albicans sc5314, 16 h, at 0.5 µg/mL
[9] = biological target: T1, Lanosterol 14-alpha demethylase; test: Inhibition of CYP51 in Candida albicans ATCC SC5314 assessed as lanosterol level at 2 ug/ml after 16 hrs by GC-MS analysis (reference value: 1.7%); set-up: scale not given: the % may be the effect or the level left; settings: candida albicans sc5314, 16 h, at 2 µg/mL
[10] = Hemolytic activity in rabbit RBC assessed as hemolysis ratio at 2 ug/ml measured after 3 hrs by microplate reader assay relative to control; type: ADME, cell-based, Oryctolagus cuniculus, Erythrocyte; settings: rabbit red blood cells (erythrocytes), at 2 µg/mL, read-out: Activity
[11] = test system: MDA-MB-231; test: Cytotoxicity against human MDA-MB-231 cells assessed as reduction in cell viability incubated for 96 hrs by MTT assay; settings: MDA-MB-231, 96 h
[12] = Hemolytic activity in rabbit RBC assessed as hemolysis ratio at 8 ug/ml measured after 3 hrs by microplate reader assay relative to control; type: ADME, cell-based, Oryctolagus cuniculus, Erythrocyte; settings: rabbit red blood cells (erythrocytes), at 8 µg/mL, read-out: Activity
[13] = biological target: T1, Lanosterol 14-alpha demethylase; test: Inhibition of CYP51 in Candida albicans ATCC SC5314 assessed as Obtusifoliol level at 8 ug/ml after 16 hrs by GC-MS analysis (reference value: 0%); set-up: scale not given: the % may be the effect or the level left; settings: candida albicans sc5314, 16 h, at 8 µg/mL
[14] = test system: Pichia kudriavzevii; test: Antifungal activity against Candida krusei AS2.1045 measured after 24 hrs by broth microdilution assay; type: functional
[15] = Hemolytic activity in rabbit RBC assessed as hemolysis ratio at 1 ug/ml measured after 3 hrs by microplate reader assay relative to control; type: ADME, cell-based, Oryctolagus cuniculus, Erythrocyte; settings: rabbit red blood cells (erythrocytes), at 1 µg/mL, read-out: Activity
[16] = test system: Candida parapsilosis; test: Antifungal activity against Candida parapsilosis ATCC 22019 measured after 24 hrs by broth microdilution assay; type: functional; settings: Lodderomyces parapsilosis
[17] = test system: Candida albicans; test: Anti-biofilm activity in Candida albicans CPCC400616 assessed as inhibition of biofilm formation incubated for 24 hrs with 6 hrs precultured fungal suspension by XTT assay; type: functional
[18] = test system: Candida albicans; test: Antifungal activity against Candida albicans ATCC SC5314 measured after 24 hrs by broth microdilution assay; type: functional
[19] = biological target: T1, Lanosterol 14-alpha demethylase; test: Inhibition of CYP51 in Candida albicans ATCC SC5314 assessed as Eburicol level at 2 ug/ml after 16 hrs by GC-MS analysis (reference value: 0%); set-up: scale not given: the % may be the effect or the level left; settings: candida albicans sc5314, 16 h, at 2 µg/mL
[20] = test system: Candida albicans; test: Anti-biofilm activity in Candida albicans CPCC400616 assessed as inhibition of biofilm formation incubated for 24 hrs with 1.5 hrs precultured fungal suspension by XTT assay; type: functional
[21] = test system: [Candida] zeylanoides; test: Antifungal activity against Candida zeylanoides CMGCC2.3739 measured after 24 hrs by broth microdilution assay; type: functional; settings: Dujonia zeylanoides
[22] = biological target: T1, Lanosterol 14-alpha demethylase; test: Inhibition of CYP51 in Candida albicans ATCC SC5314 assessed as ergosterol level at […] ug/ml after 16 hrs by GC-MS analysis (reference value: 98.3%); set-up: scale not given: the % may be the effect or the level left; settings: candida albicans sc5314, 16 h, dose 0.125 µg/ml
[23] = biological target: T1, Lanosterol 14-alpha demethylase; test: Inhibition of CYP51 in Candida albicans ATCC SC5314 assessed as lanosterol level at 0.03125 ug/ml after 16 hrs by GC-MS analysis (reference value: 1.7%); set-up: scale not given: the % may be the effect or the level left; settings: candida albicans sc5314, 16 h, at 0.03125 µg/mL
[24] = test system: Candida albicans; test: Anti-biofilm activity in Candida albicans CPCC400616 assessed as inhibition of biofilm formation incubated for 24 hrs with 24 hrs precultured fungal suspension by XTT assay; type: functional
[25] = Hemolytic activity in rabbit RBC assessed as hemolysis ratio at 4 ug/ml measured after 3 hrs by microplate reader assay relative to control; type: ADME, cell-based, Oryctolagus cuniculus, Erythrocyte; settings: rabbit red blood cells (erythrocytes), at 4 µg/mL, read-out: Activity
[26] = test system: Nakaseomyces glabratus; test: Antifungal activity against Candida glabrata measured after 24 hrs by broth microdilution assay; type: functional
[27] = biological target: T1, Lanosterol 14-alpha demethylase; test: Inhibition of CYP51 in Candida albicans ATCC SC5314 assessed as Eburicol level at 0.03125 ug/ml after 16 hrs by GC-MS analysis (reference value: 0%); set-up: scale not given: the % may be the effect or the level left; settings: candida albicans sc5314, 16 h, at 0.03125 µg/mL
[28] = test system: PC-3; test: Cytotoxicity against human PC3 cells assessed as reduction in cell viability incubated for 96 hrs by MTT assay; type: cell-based; settings: PC-3, 96 h, read-out: IC50
[29] = biological target: T1, Lanosterol 14-alpha demethylase; test: Inhibition of CYP51 in Candida albicans ATCC SC5314 assessed as Obtusifoliol level at 0.5 ug/ml after 16 hrs by GC-MS analysis (reference value: 0%); set-up: scale not given: the % may be the effect or the level left; settings: candida albicans sc5314, 16 h, at 0.5 µg/mL
[30] = test system: Candida albicans; test: Anti-biofilm activity in Candida albicans CPCC400616 assessed as inhibition of biofilm formation incubated for 24 hrs with 3 hrs precultured fungal suspension by XTT assay; type: functional
[31] = test system: HL-60; test: Cytotoxicity against human HL-60 cells assessed as reduction in cell viability incubated for 96 hrs by MTT assay; type: cell-based; settings: HL-60, 96 h
[32] = test system: Cryptococcus neoformans; test: Antifungal activity against Cryptococcus neoformans CMGCC2.3161 measured after 72 hrs by broth microdilution assay; type: functional
[33] = biological target: T1, Lanosterol 14-alpha demethylase; test: Inhibition of CYP51 in Candida albicans ATCC SC5314 assessed as Obtusifoliol level at 2 ug/ml after 16 hrs by GC-MS analysis (reference value: 0%); set-up: scale not given: the % may be the effect or the level left; settings: candida albicans sc5314, 16 h, at 2 µg/mL
[34] = biological target: T1, Lanosterol 14-alpha demethylase; test: Inhibition of CYP51 in Candida albicans ATCC SC5314 assessed as Eburicol level at 0.5 ug/ml after 16 hrs by GC-MS analysis (reference value: 0%); set-up: scale not given: the % may be the effect or the level left; settings: candida albicans sc5314, 16 h, at 0.5 µg/mL

Structure (SMILES): Fc1ccc([Se]C(Cn2ccnc2)c2ccc(F)cc2F)cc1 (stereo unspecified)
- Activity [1]: 5.7%
- MFC99 [2]: 1 µg/mL (≈ 2.62 µM)
- Activity [3]: 10.1%
- Activity [4]: 11.1%
- Activity [5]: 8.7%
- Activity [6]: 2.2%
- Activity [7]: 82%
- Activity [8]: 4.9%
- Activity [9]: 9%
- hemolysis at 3 h, 2 ug/ml [10]: 0%
- pIC50 [11]: 4.40
- hemolysis at 3 h, 8 ug/ml [12]: 0.33%
- Activity [13]: 10.2%
- MIC [14]: 0.5 µg/mL (≈ 1.31 µM)
- hemolysis at 3 h, 1 ug/ml [15]: 0%
- MIC [16]: 0.03 µg/mL (≈ 0.0787 µM)
- MIC50 [17]: 64 µg/mL (≈ 168 µM)
- MIC80 [17]: 128 µg/mL (≈ 336 µM)
- MIC [18]: 0.02 µg/mL (≈ 0.0525 µM)
- Activity [19]: 78%
- MIC50 [20]: 4 µg/mL (≈ 10.5 µM)
- MIC80 [20]: 8 µg/mL (≈ 21 µM)
- MIC [21]: 0.25 µg/mL (≈ 0.656 µM)
- Activity [22]: 5.8%
- Activity [23]: 4.1%
- MIC50 [24]: > 128 µg/mL
- MIC80 [24]: > 128 µg/mL
- hemolysis at 3 h, 4 ug/ml [25]: 0%
- MIC [26]: 1 µg/mL (≈ 2.62 µM)
- Activity [27]: 70.2%
- pIC50 [28]: 4.26
- Activity [29]: 9.9%
- MIC50 [30]: 8 µg/mL (≈ 21 µM)
- MIC80 [30]: 16 µg/mL (≈ 42 µM)
- pIC50 [31]: 4.61
- MIC [32]: 0.5 µg/mL (≈ 1.31 µM)
- Activity [33]: 10.8%
- Activity [34]: 75.1%

Structure (SMILES): Clc1ccc(COC(Cn2ccnc2)c2ccc(Cl)cc2Cl)c(Cl)c1 (stereo unspecified) [MICONAZOLE]
- Activity [1]: 7.4%
- MFC99 [2]: 2 µg/mL (≈ 4.81 µM)
- Activity [3]: 8.9%
- Activity [4]: 17.4%
- Activity [5]: 12.2%
- Activity [6]: 5.2%
- Activity [7]: 80.7%
- Activity [8]: 7.1%
- Activity [9]: 13.6%
- hemolysis at 3 h, 2 ug/ml [10]: 8.55%
- pIC50 [11]: 4.77
- hemolysis at 3 h, 8 ug/ml [12]: 87.3%
- Activity [13]: 7.8%
- MIC [14]: 0.5 µg/mL (≈ 1.2 µM)
- hemolysis at 3 h, 1 ug/ml [15]: 0.16%
- MIC [16]: 0.25 µg/mL (≈ 0.601 µM)
- MIC50 [17]: > 128 µg/mL
- MIC80 [17]: > 128 µg/mL
- MIC [18]: 0.03 µg/mL (≈ 0.0721 µM)
- Activity [19]: 75.2%
- MIC50 [20]: 16 µg/mL (≈ 38.4 µM)
- MIC80 [20]: 128 µg/mL (≈ 308 µM)
- MIC [21]: 1 µg/mL (≈ 2.4 µM)
- Activity [22]: 8.3%
- Activity [23]: 10%
- MIC50 [24]: > 128 µg/mL
- MIC80 [24]: > 128 µg/mL
- hemolysis at 3 h, 4 ug/ml [25]: 81.8%
- MIC [26]: 0.5 µg/mL (≈ 1.2 µM)
- Activity [27]: 70.6%
- pIC50 [28]: 4.87
- Activity [29]: 9%
- MIC50 [30]: 32 µg/mL (≈ 76.9 µM)
- MIC80 [30]: 128 µg/mL (≈ 308 µM)
- pIC50 [31]: 6.10
- MIC [32]: 0.5 µg/mL (≈ 1.2 µM)
- Activity [33]: 6.1%
- Activity [34]: 75.1%

From ChEMBL document CHEMBL4813985, “Lead optimization generates selenium-containing miconazole CYP51 inhibitors with improved pharmacological profile for the treatment of fungal infections” (Eur J Med Chem, 2021)
